Here are results for 18 compounds from patent US6710078B2, “5-Substituted-3(2H)-furanones useful for inhibition of farnesyl-protein transferase” (Wyeth Holdings Corporation, priority 2001, dated 2004).

The target of test [1] is T1, FPTase (Homo sapiens, UniProt P49354+P49356). Put plainly: in vitro FTase Inhibition Assay, K-Ras as substrate for farnesylation. Conditions: K-Ras used as substrate for farnesylation. The format is biochemical. Here is the method:
(§1) Enzyme test procedure: FPTase inhibition in vitro assay was performed according to James, G. L., Brown, M. S., and Goldstein, J. L., Methods in Enzymology, 1995, 255, 38-46; and Garcia, M. A., et al., J. Biol. Chem., 1993, 268,18415-18420.
(§2) Materials—Purified FPTase (Moomaw, J. F. and Casey, P. J., J. Biol. Chem., 1992, 267,17438-17443), purified His6-Ras, inhibitor compounds at 10 mg/ml or 10 mM in 100% DMSO, ^3H-FPP (50,000 dpm/pmol) Amersham, TCA/SDS (6%/2%), TCA (6%), Glass fiber filters ([…]), vacuum manifold or 96 well filtration plates.
(§3) Methods—1. Dilute FPTase inhibitors from stock solutions to 2.5× in 2.5% DMSO, 10 mM DTT, 0.5% octyl-B-glucoside. 2. Solution #1 is added to FPTase reaction in a volume of […]. 3. Standard reaction mix, […], contains 50 mM Tris (7.5),[…], 3 mM MgCl2, 20 mM KCl, 5 mM DTT, 0.2% octyl-B-glucoside, 1% DMSO, […], 10 ng FPTase, and various concentrations of FPTase inhibitors. 4. Incubate for 30-90 min at 25° C. 5. Stop reactions with TCA/SDS (6%/2%), hold at 4° C. for 45-60 min. 6. Filter by manifold or 96 well plate, wash filter 3-5× with TCA (6%). 7. Add scintillant to filters, measure ^3H-FPP incorporation into Ras protein.
(§4) Analysis of Results—Percent inhibition by test compounds is determined by the following:
(§5) (cpm from precipitated Ras with test compounds)−(background cpm)×100=% inhibition.
(§6) (cpm from precipitated Ras without test compounds)−(background cpm)

Test [2] concerns the target T1, FPTase. Description: in vitro FTase Inhibition Assay, H-Ras as substrate for farnesylation. Conditions: H-Ras used as substrate for farnesylation. The format is biochemical. Here is the method: as §1, §2, §3, §4, §5, §6

Broadly, the IC50 is the concentration that gives 50% inhibition. Read a low IC50 as higher potency.

As for `CC1(c2ccccc2)OC(CC(SC[C@@H](O)[C@H](O)CS)c2ccsc2)=CC1=O` (relative stereo) [Example 1, 5-(2-{[(2S*,3S*)-2,3-Dihydroxy-4-mercaptobutyl]thio}-2-thien-3-ylethyl)-2-methyl-2-phenylfuran-3(2H)-one], the IC50 in test [1] came to 0.1 µM; in test [2] it was 0.06 µM.
Regarding `CC1(c2ccccc2)OC(CC(SC[C@H](O)[C@H](O)CS)c2ccsc2)=CC1=O` (relative stereo) [Example 2, 5-(2-[[(2R*,3S*)-2,3-Dihydroxy-4-mercaptobutyl]thio]-2-thien-3-ylethyl)-2methyl-2-phenylfuran-3(2H)-one], it took 0.19 µM to reach half-maximal inhibition in test [2] (IC50).
On to `CC1(c2ccccc2)OC(CC(SC[C@@H](O)[C@H](O)CS)c2ccccc2[N+](=O)[O-])=CC1=O` (relative stereo) [Example 7, 5-[2-{[(2S*,3S*)-2,3-Dihydroxy-4-mercaptobutyl]thio}-2-(2-nitrophenyl)ethyl]-2-methyl-2-phenylfuran-3(2H)-one], for which the figures for the IC50 in test [1] and in test [2] were 0.09 µM and 0.32 µM, respectively.
Consider `CC1(c2ccccc2)OC(CC(SC[C@H](O)[C@@H](O)CS)c2ccsc2)=CC1=O` (stereo partly drawn) [Example 3, 5-[2-{[(2R,3R)-2,3-Dihydroxy-4-mercaptobutyl]thio}-2-(3-thienyl)ethyl]-2-methyl-2-phenylfuran-3(2H)-one], for which, in test [2], inhibition was half-maximal at 0.18 µM (IC50).
Consider `CC1(c2ccc(F)cc2)OC(CC(SC[C@H](O)[C@@H](O)CS)c2ccsc2)=CC1=O` (stereo partly drawn) [Example 6, 5-(2-{[(2R,3R)-2,3-Dihydroxy-4-mercaptobutyl]thio}-2-thien-3-ylethyl)-2-(4-fluorophenyl)-2-methylfuran-3(2H)-one], for which the IC50 in test [1] worked out at 0.14 µM; in test [2], 0.12 µM.
Taken in the same sequence, the figures for `CC(C1=CC(=O)C(C)(c2ccccc2)O1)C(SCC(O)C(O)CS)c1ccsc1` (stereo not shown) [Example 8, 5-(2-{[(2S*3S*)-2,3-Dihydroxy-4-mercaptobutyl]thio}-1-methyl-2-thien-3-ylethyl)-2-methyl-2-phenylfuran-3(2H)-one] were 0.7 µM and 0.5 µM.
Taken in the same sequence, the figures for `CC1(c2ccccc2)OC(CC(SCCCCS)c2ccsc2)=CC1=O` (stereo not shown) [Example 9, 5-[2-[(4-Mercaptobutyl)thio]-2-(3-thienyl)ethyl]-2-methyl-2-phenylfuran-3(2H)-one] were 3.7 µM and 1.5 µM.
Regarding `CC1(c2ccccc2)OC(CC(SCCCCO)c2ccsc2)=CC1=O` (stereo not shown) [Example 10, 5-[2-[(4-Hydroxybutyl)thio]-2-(3-thienyl)ethyl]-2-methyl-2-phenylfuran-3(2H)-one], the IC50 in test [1] is more than 10 µM; in test [2], 5.5 µM.
Taken in the same sequence, the figures for `CC1(c2ccccc2)OC(CC(SCCCS)c2ccsc2)=CC1=O` (stereo not shown) [Example 11, 5-[2-[(3-Mercaptopropyl)thio]-2-(3-thienyl)ethyl]-2-methyl-2-phenylfuran-3(2H)-one] were 0.15 µM and 0.06 µM.
In turn, `CC1(c2ccccc2)OC(CC(SCCCCCS)c2ccsc2)=CC1=O` (stereo not shown) [Example 12, 5-[2-[(5-Mercaptopentyl)thio]-2-(3-thienyl)ethyl]-2-methyl-2-phenylfuran-3(2H)-one] came in with an IC50 in test [2] of 8 µM.
Take `CC1(c2ccccc2)OC(CC(SCCS)c2ccsc2)=CC1=O` (stereo not shown) [Example 13, 5-[2-[(2-Mercaptoethyl)thio]-2-(3-thienyl)ethyl]-2-methyl-2-phenylfuran-3(2H)-one]: the IC50 turned out to be 1 µM in test [1] and 0.18 µM in test [2].
Taken in the same sequence, the figures for `CC1(c2ccccc2)OC(CC(SCC(S)CO)c2ccsc2)=CC1=O` (stereo not shown) [Example 14, 5-[2-[(3-Hydroxy-2-mercaptopropyl)thio]-2-(3-thienyl)ethyl]-2-methyl-2-phenylfuran-3(2H)-one] were 4.5 µM and 7.2 µM.
`CC1(c2ccccc2)OC(CC(SCCCO)c2ccsc2)=CC1=O` (stereo not shown) [Example 15, 5-[2-[(3-Hydroxypropyl)thio]-2-(3-thienyl)ethyl]-2-methyl-2-phenylfuran-3(2H)-one]: the IC50 in test [2] came out at 8.3 µM.
On the same count and under the same terms, to `CC1(c2ccccc2)OC(CC(SCC(O)CO)c2ccsc2)=CC1=O` (stereo not shown) [Example 16, 5-[2-[(2,3-Dihydroxypropyl)thio]-2-(3-thienyl)ethyl]-2-methyl-2-phenylfuran-3(2H)-one] belongs 5 µM.
For `CC1(c2ccccc2)OC(CC(SCCc2cnccn2)c2ccsc2)=CC1=O` (stereo not shown) [Example 17, 2-Methyl-2-phenyl-5-[2-[(2-pyrazin-2-ylethyl)thio]-2-(3-thienyl)ethyl]furan-3(2H)-one], the IC50 in test [1] and in test [2] was more than 10 µM each time.
For the compound `CC1(c2ccccc2)OC(CC(SCCO)c2ccsc2)=CC1=O` (stereo not shown) [Example 18], in test [2], the midpoint of inhibition, the IC50, lay at 0.55 µM.
The same measure, in the same setting: to `CC1(c2ccc(F)cc2)OC(CC(SCCO)c2ccsc2)=CC1=O` (stereo not shown) [Example 19, 2-(4-Fluorophenyl)-5-[2-[(2-hydroxyethyl)thio]-2-(3-thienyl)ethyl]-2-methylfuran-3(2H)-one] belongs more than 10 µM.
Same read-out and setting: to `CC1(c2ccccc2)OC(CC(SC[C@H](N)C(=O)O)c2ccsc2)=CC1=O` (stereo partly drawn) [Example 20, (2R)-2-Amino-3-{[2-(5-methyl-4-oxo-5-phenyl-4,5-dihydrofuran-2-yl)-1-thien-3-ylethyl]thio}propanoic acid] belongs more than 10 µM.
